Experimental data taken from patent publication US7968710B2, “Prokineticin 1 receptor antagonists” (Janssen Pharmaceutica NV, priority 2005, dated 2011).
Several values for one entry are separate records, joined by “and”; a condition that tells them apart may be missing. Equal values may be shown once.

Key:
PK1 receptor = PK1 receptor (Rattus norvegicus, UniProt Q8R416); assay: Inhibition of PK1-evoked increase in Isc by PK1 receptor antagonists in Ussing-type ion flux chambers; conditions: test compound 1 μM, 15 min incubation, PK1 10 and 100 nM cumulative
PK1 receptor, sequence (Q8R416 whole entry): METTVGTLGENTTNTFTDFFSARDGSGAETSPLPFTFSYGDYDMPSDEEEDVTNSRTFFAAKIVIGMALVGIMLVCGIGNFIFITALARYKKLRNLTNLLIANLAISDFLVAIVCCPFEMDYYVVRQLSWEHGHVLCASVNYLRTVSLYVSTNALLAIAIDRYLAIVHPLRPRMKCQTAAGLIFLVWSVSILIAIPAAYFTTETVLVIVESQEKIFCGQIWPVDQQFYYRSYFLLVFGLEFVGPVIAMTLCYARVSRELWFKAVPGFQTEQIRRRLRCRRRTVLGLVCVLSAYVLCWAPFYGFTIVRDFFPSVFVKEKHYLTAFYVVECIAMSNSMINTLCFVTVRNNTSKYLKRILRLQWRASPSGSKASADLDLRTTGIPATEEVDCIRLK
Source text: Methodology. The basic methodology for Ussing-type ion flux chambers used in these studies was the same as that described in detail above with the following modifications to the experimental protocol.

[1] = molecular target: T1, HEK 293 GPR73 (prokineticin 1 receptor) expressing cells (Homo sapiens, UniProt Q8TCW9); assay: PK1 functional assay: screening for PK1 antagonists on the FLIPR (calcium mobilization); assay type: cell-based; conditions: HEK 293 GPR73 cells; for inhibition at 10 µM: HEK293, 10 μM compound, read-out: Ca^2+ Mobilization % Inh @10 μM; for IC50: PK1 ligand at EC50, read-out: Ca^2+ Mobilization IC50; for Ca^2+ Mobilization % Inh @10 μM: 10 μM compound
T1 construct: expressed in transfected cells; host or cells: HEK 293
T1 sequence (Q8TCW9 whole entry): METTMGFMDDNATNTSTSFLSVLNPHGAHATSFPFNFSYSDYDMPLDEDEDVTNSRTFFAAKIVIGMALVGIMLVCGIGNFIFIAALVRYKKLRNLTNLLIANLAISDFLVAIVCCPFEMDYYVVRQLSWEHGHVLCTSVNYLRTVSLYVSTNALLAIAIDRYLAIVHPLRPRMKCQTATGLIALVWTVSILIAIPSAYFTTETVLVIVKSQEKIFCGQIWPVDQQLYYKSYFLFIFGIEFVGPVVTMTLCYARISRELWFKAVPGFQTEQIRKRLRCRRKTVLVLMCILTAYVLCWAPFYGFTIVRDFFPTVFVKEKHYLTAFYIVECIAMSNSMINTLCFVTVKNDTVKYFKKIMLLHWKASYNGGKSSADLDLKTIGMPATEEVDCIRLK
Protocol: Screening Procedure for PK1 Antagonists on the Fluorometric Imaging Plate Reader (FLIPR)
At a time of 24 h prior to running the assay, in cell culture media (DMEM containing high Glucose and L-glutamine, 10% FBS, 1% Pen/Streptomycin, 1% Sodium Pyruvate, 20 mM HEPES, Zeocin 200 mg/L), 100 μL of 1.3*10^6/ml HEK 293 GPR73 (prokineticin 1 receptor) expressing cells were plated in a 96 well poly-d-lysine coated plate (Costar), and incubated at 37 C and 5% CO2. On the day in which the assay was run, the media was removed and 200 μL of 5× Calcium Plus Dye (Molecular Devices) which was previously resuspended with 200 mL of assay buffer [HBSS w/Ca^2+ and Mg^2+ w/o phenol red, 20 mM HEPES, 0.1% BSA, 10 mL probenecid (710 mg probenecid in 5 mL of 1N NaOH, to which was then added 5 mL HBSS containing 20 mM HEPES)] was added to each well of the 96-well plate. The plate was incubated at 37 C and 5% CO2 for 30 min in dark. The plate was removed and allowed to reach RT for 15 min in the dark. The assay was then run on the FLIPR. […] Baseline is described as the amount of relative fluorescence read when buffer alone is added to cells. Baseline was subtracted from all wells. Percent of control was calculated as follows: (Baseline subtracted well value is divided by baseline subtracted max value)*100. Percent inhibition is 100 minus the percent of control value.
IC50 values were calculated using GraphPad Prism.

rat ileal tissues = assay: Effect of PK1 on secretion and gut mucosal ion transport (short-circuit current, Ussing-type flux chamber)
[2] = test system: ileum mucosal tissues from PK1 receptor knock-out mice; assay: PK1-evoked Isc in ileum mucosal tissues from PK1 receptor knock-out mice; conditions: exogenous PK1 peptide, PK1 receptor knock-out mice ileum mucosa

Molecule | inhibition at 10 µM [1] [%] | IC50 [1] | Ca^2+ Mobilization % Inh @10 μM [1] | further results
COc1ccc(Cn2c(NCCNC(=N)N)nc(=O)n(Cc3ccccc3)c2=O)cc1 [Cpd 2] | – | – | – | inhibition of the PK1 evoked increase in Isc (PK1 receptor): successfully achieved
N=C(N)NCCNc1nc(=O)n(Cc2ccccc2)c(=O)n1Cc1ccc([N+](=O)[O-])cc1 [Cpd 9] | 35 | > 10000 nM | – | –
COc1ccc(Cn2c(NCCONC(=N)N)nc(=O)n(Cc3ccccc3)c2=O)cc1 [Cpd 10] | – | – | 33% | –
COc1ccc(Cn2c(NCCNC(=N)N)nc(=O)n(Cc3ccc(F)cc3)c2=O)cc1 [Cpd 17, N-{2-[5-(4-Fluoro-benzyl)-1-(4-methoxy-benzyl)-4,6-dioxo-1,4,5,6-tetrahydro-[1,3,5]triazin-2-ylamino]-ethyl}-guanidine] | – | – | – | inhibition of the PK1 evoked increase in Isc (PK1 receptor): successfully achieved
COc1ccc(Cn2c(N[C@@H]3CCCC[C@H]3NC(=N)N)nc(=O)n(Cc3ccc(Cl)c(Cl)c3)c2=O)cc1 [Cpd 47] | 101 | 57 nM | – | –
COc1ccc(Cn2c(NCCNC(=N)NC(C)C)nc(=O)n(Cc3ccc(Cl)c(Cl)c3)c2=O)cc1 [Cpd 58, N-{2-[5-(3,4-Dichloro-benzyl)-1-(4-methoxy-benzyl)-4,6-dioxo-1,4,5,6-tetrahydro-[1,3,5]triazin-2-ylamino]-ethyl}-N′-isopropyl-guanidine] | 102 | 7 nM and 16 nM (2×) | – | Ca^2+ Mobilization % Inh @10 μM ([1]; 10 µM): 99% and 98%; inhibition of the PK1 evoked increase in Isc (PK1 receptor): successfully achieved
COc1ccc(Cn2c(NCCNC(=N)NCCc3ccccc3)nc(=O)n(Cc3ccc(Cl)c(Cl)c3)c2=O)cc1 [Cpd 65] | – | 485 nM | 88% | –
COc1ccc(Cn2c(NCCNC(=N)Nc3ccc(C#N)cc3)nc(=O)n(Cc3ccc(F)cc3)c2=O)cc1 [Cpd 90, N-(4-Cyano-phenyl)-N′-{2-[5-(4-fluoro-benzyl)-1-(4-methoxy-benzyl)-4,6-dioxo-1,4,5,6-tetrahydro-[1,3,5]triazin-2-ylamino]-ethyl}-guanidine] | 100 | 31 nM and 43 nM (2×) | – | Ca^2+ Mobilization % Inh @10 μM ([1]; 10 µM): 100% and 101%
COc1ccc(Cn2c(NCCN(C(=N)N)c3ccccn3)nc(=O)n(Cc3ccc(F)cc3)c2=O)cc1 [Cpd 104, N-{2-[5-(4-Fluoro-benzyl)-1-(4-methoxy-benzyl)-4,6-dioxo-1,4,5,6-tetrahydro-[1,3,5]triazin-2-ylamino]-ethyl}-N-pyridin-2-yl-guanidine] | – | 11 nM | – | Ca^2+ Mobilization % Inh @10 μM ([1]; 10 µM): 99% and 102%
COc1ccc(Cn2c(NCCNC(=N)NCCc3ccccn3)nc(=O)n(Cc3ccc(F)cc3)c2=O)cc1 [Cpd 105] | – | 89 nM | 100% | –
[H]/N=C(\N)NCCNc1nc(=O)n(Cc2ccc(OC(C)(C)C)cc2)c(=O)n1Cc1ccc(OC)cc1 [Cpd 109] | 99 | 129 nM | – | –
COc1ccc(Cn2c(NCCNC(=N)Nc3ccccc3F)nc(=O)n(Cc3ccc(F)cc3)c2=O)cc1 [Cpd 118, N-{2-[5-(4-Fluoro-benzyl)-1-(4-methoxy-benzyl)-4,6-dioxo-1,4,5,6-tetrahydro-[1,3,5]triazin-2-ylamino]-ethyl}-N′-(2-fluoro-phenyl)-guanidine] | 98 | 6 nM | – | Ca^2+ Mobilization % Inh @10 μM ([1]; 10 µM): 102%
COc1ccc(Cn2c(NCCNC(=N)N)nc(=O)n(CC3CCCC3)c2=O)cc1 [Cpd 124] | – | 1560 nM | 74% | –
COc1ccc(Cn2c(NCCNC(=N)NC(=O)c3ccccc3)nc(=O)n(Cc3ccc(F)cc3)c2=O)cc1 [Cpd 134, N-Benzoyl-N′-{2-[5-(4-fluoro-benzyl)-1-(4-methoxy-benzyl)-4,6-dioxo-1,4,5,6-tetrahydro-[1,3,5]triazin-2-ylamino]-ethyl}-guanidine] | 97 | 19 nM and 28 nM | 97, 97% | –
N-{2-[5-Benzyl-1-(4-methoxy-benzyl)-4,6-dioxo-1,4,5,6-tetrahydro-[1,3,5]triazin-2-ylamino]-ethyl}-oxyguanidine [Cpd 27] | – | 1970 nM | 55% | –
PK1: Recombinant human prokineticin-1 expressed in HEK 293 cells, FLAG cleaved; mixture of full-length ligand and four C-terminal residue truncated product (protein, UniProt P58294 20-105, looked up, mixture with C-terminal 4-residue truncated form, Recombinant human prokineticin-1 expressed in HEK 293 cells, FLAG cleaved; mixture of full-length ligand and four C-terminal residue truncated product) Prokineticin-1: AVITGACERDVQCGAGTCCAISLWLRGLRMCTPLGREGEECHPGSHKVPFFRKRKHHTCPCLPNLLCSRFPDGRYRCSMDLKNINF | – | – | – | increase in Isc from baseline (rat ileal tissues; 10 nM PK1, […], n=33 tissues from 22 rats): 13.5±2. μA/cm^2; increase in Isc from baseline (rat ileal tissues; 100 nM PK1, […], n=42 tissues from 29 rats): 28.7±2.9 μA/cm^2; concentration at which the maximal PK1-evoked response occurred (rat ileal tissues; […]): 100 nM; effect on tissue conductance (G) (rat ileal tissues; […]): no significant effect; time for Isc to decline back toward baseline (rat ileal tissues; basolateral addition, […]): 10 to 15 min; time to peak Isc after single-dose addition (rat ileal tissues; basolateral addition, […]): 2 to 4 min; pro-secretory effect in the presence of Atropine (rat ileal tissues; blockade of muscarinic receptors): not blocked; pro-secretory effect in the presence of Tetrodotoxin (TTX) (rat ileal tissues; nerve conduction toxin present): not blocked; change in Isc compared to wild-type littermates [2]: failed to elicit a significant change in Isc
